Source: patent US20240156791A1, “METHODS OF TREATING SPINAL CORD INJURY OR DAMAGE” (Spinogenix, Inc., priority 2021, published 2024)

Test system: rat C2 hemisection (C2HS) model of spinal cord injury
Assay: rat C2 hemisection (C2HS) model of spinal cord injury, recovery monitored by diaphragm EMG
Assay type: in vivo
Experimental: A representative compound of this disclosure, Compound 1, was used in treating spinal cord injury in rats. The rat C2 hemisection (C2HS) model of spinal cord injury was used in this experiment. The spinal cord injury was modeled in rats by hemi-section at the level of C2 followed by monitoring of lesion and recovery was conducted by one of the following methods: diaphragm EMG, transdiaphragmatic pressure, and ventilatory behaviors.
Seven rats were treated with Compound 1 (30 mg/kg) and 8 rats were treated with a vehicle (0.5% DMSO in phosphate buffered saline) for 14 days and their recovery was monitored. […] Also, the magnitude of recovery was an average 54% among recovered compound-treated rats as compared to vehicle-treated rats.
Similar experiment was carried out separately using 4 rats and it provided similar results as those described above.

[1] = separate similar experiment using 4 rats

OCCOCCOCCOCCOc1ccc(-c2nc3ccccc3s2)cc1 [Compound 1]
recovery compared with brain derived neurotrophic factor approaches (30 mg/kg for 14 days): greater than that seen for brain derived neurothrophic factor approaches
rats recovered as judged by diaphragm EMG (30 mg/kg for 14 days, seven rats, by day 14 post lesion): 86%
magnitude of recovery (average) among recovered compound-treated rats as compared to vehicle-treated rats (30 mg/kg for 14 days, diaphragm EMG): 54%
recovery from spinal cord injury as judged by diaphragm EMG (FIG. 1A) (rats treated with compound vs vehicle (0.5% DMSO in PBS)): enhancement of recovery
% recovery as compared to vehicle-treated rats [1]: greater % recovery
magnitude of recovery as compared to vehicle-treated rats [1]: greater magnitude of recovery
